Test results: patent publication US20230232863A1, “FEED COMPOSITION FOR TENEBRIO MOLITOR” (priority 2022, published 2023)

Legend:
Tenebrio molitor [1] = assay: Mealworm larvae feeding: development time (larvae-pupae transformation); format: in vivo; settings: days until 50% of larvae changed into pupae; laboratory scale; alloferon 1 ppm
Procedure: The feeding gelatin was made with combining 200 g of distilled water and 4 g of paper gelatin (Gelita H G, Eberbach, Germany), and solidified in the refrigerator using an ice cubic stick tray with the lid closed. The same process was performed for the experimental group of gelatin containing alloferon peptide (Biomatik, Del., USA) of 1 ppm. The tray had 10 slots to make each gelatin of approximately 20 g gelatin cubic and kept in the refrigerator with the lids closed to minimize loss of moisture. Yellow mealworms (Tenebrio molitor) were provided by a private local insect breeder (Mealworm village, Seoul, Korea). Mealworms larvae were divided into three different dietary groups: (1) About 500 larvae were placed in a plastic container (18.5×12×5.5 cm) with 30 g wheat bran only (control group), (2) About 500 larvae with wheat bran supplemented with 20 g gelatin three times per week (positive control group), (3) About 500 larvae with wheat bran supplemented with 20 g gelatin containing alloferon peptide of 1 ppm three times per week (experimental group). Two replicated containers per each dietary group were set up, after which the containers were placed in a climate chamber at 25° C. with a relative humidity of 60%. Development time of mealworms was considered to be the number of days until 50% of mealworms larvae changed into pupae stage.

Sf9 insect cells = assay: In vitro cell proliferation analysis by PrestoBlue assay; format: cell-based; settings: 300 nM alloferon; measured at 0, 2, 4 and 6 days
Procedure: The proliferation of Sf9 insect cells was analyzed by the PrestoBlue assay (Invitrogen, CA, USA). 8,000 cells/well were prepared in 96 well plates (Sigma-Aldrich, MI, USA). After cells were seeded, the cells were incubated with PBS with alloferon (300 nM). The control group received PBS without aloferon. At 0, 2, 4, and 6 days after applying 10% PrestoBlue, the color switchover of resazurin to resorufin (Absorbance 570 nm/600 nm) was measured with the microplate reader (BioTeck, Vt., USA).

Tenebrio molitor [2] = assay: Mealworm larvae feeding: survival rate; format: in vivo; settings: alloferon peptide of 1 ppm
Procedure: The feeding gelatin was made with combining 200 g of distilled water and 4 g of paper gelatin (Gelita H G, Eberbach, Germany), and solidified in the refrigerator using an ice cubic stick tray with the lid closed. The same process was performed for the experimental group of gelatin containing alloferon peptide (Biomatik, Del., USA) of 1 ppm. The tray had 10 slots to make each gelatin of approximately 20 g gelatin cubic and kept in the refrigerator with the lids closed to minimize loss of moisture.
Yellow mealworms (Tenebrio molitor) were provided by a private local insect breeder (Mealworm village, Seoul, Korea). Mealworms larvae were divided into three different dietary groups: (1) About 500 larvae were placed in a plastic container (18.5×12×5.5 cm) with 30 g wheat bran only (control group), (2) About 500 larvae with wheat bran supplemented with 20 g gelatin three times per week (positive control group), (3) About 500 larvae with wheat bran supplemented with 20 g gelatin containing alloferon peptide of 1 ppm three times per week (experimental group). […]
Mealworms pupae and dead larvae were counted and removed daily from each experimental group, and the numbers were recorded for the evaluation of survival rate. The average weight of the mealworm larvae was recorded every week with 20 randomly selected mealworms.

Phenoloxidase = Phenoloxidase activity analysis in homogenized larvae tissue; format: in vivo, Tenebrio molitor; settings: after alloferon diet
Procedure: For various analysis of biologic response, harvested mealworms larvae were killed by freezing and then all mealworms stored at −20° C. Penoloxidase activity in homogenized larvae tissue was analyzed with a 96 well microplate reader using catechol as the substrate. After the sample was incubated for 37° C. for 10 min, the 420 nm absorbance was measured with a microplate spectrophotometer (Bio-Rad, CA, USA). The essay was performed with three replicates and each experiment was repeated three times. The penoloxidase activity was expressed as units of enzyme activity per mg protein.

## H-His-Gly-Val-Ser-Gly-His-Gly-Gln-His-Gly-Val-His-Gly-OH (H-HGVSGHGQHGVHG-OH) [alloferon, immunomodulatory peptide (Biomatik) first isolated from hemolymph of Calliphora vicina maggots]
Tenebrio molitor [1]
  development time shortened compared to wheat bran diet control: 40.3%
Sf9 insect cells
  cell proliferation of Sf9 cells: significantly boosted cell proliferation of Sf9 cells only after 6 days
Tenebrio molitor [2]
  increase of survival rate: over 61.8%
Phenoloxidase
  phenoloxidase expression/activity in mealworm tissue: increasing the expression of penoloxidase
